Where two headings read alike, the source gives them in different places. One block for each molecule: values may come before it.
Experiments:
Experiment in all cases: pNPG enzyme inhibition assay, % inhibition at […]; also affinity ultrafiltration LC-MS (PAR […])
Format in all cases: biochemical
Conditions in all cases: read-out: Inhibitory (%)
α-Glucosidase [1] = molecular target: T1, α-Glucosidase (Saccharomyces cerevisiae, UniProt P53341)
T1 construct: gene MAL12

α-Glucosidase [2] = molecular target: T1, α-Glucosidase; remark: listed apart in the source
α-Glucosidase [3] = molecular target: T1, α-Glucosidase; remark: listed apart in the source

T1 sequence (P53341 whole entry): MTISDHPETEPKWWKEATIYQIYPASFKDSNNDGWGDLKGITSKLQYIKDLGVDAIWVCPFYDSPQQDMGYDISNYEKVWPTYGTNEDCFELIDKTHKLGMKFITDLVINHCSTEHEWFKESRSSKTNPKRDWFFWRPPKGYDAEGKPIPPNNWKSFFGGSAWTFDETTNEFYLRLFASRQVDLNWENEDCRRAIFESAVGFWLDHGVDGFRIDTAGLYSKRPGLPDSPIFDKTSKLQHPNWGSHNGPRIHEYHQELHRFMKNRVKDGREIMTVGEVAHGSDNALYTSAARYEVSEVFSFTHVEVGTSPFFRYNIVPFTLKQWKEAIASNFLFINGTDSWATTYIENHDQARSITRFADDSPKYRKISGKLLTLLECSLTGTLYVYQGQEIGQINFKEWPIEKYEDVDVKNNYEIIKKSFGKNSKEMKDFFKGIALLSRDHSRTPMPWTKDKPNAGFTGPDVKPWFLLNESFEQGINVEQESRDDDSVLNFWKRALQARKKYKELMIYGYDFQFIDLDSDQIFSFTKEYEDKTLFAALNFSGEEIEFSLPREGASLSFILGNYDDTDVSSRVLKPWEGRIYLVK

SMILES: C=C(CCC=C(C)C)[C@H]1CC[C@]2(C)C1[C@H](O)CC1[C@@]3(C)CC[C@H](O)C(C)(C)C3[C@@H](OC3O[C@H](CO)[C@@H](O)[C@H](O)[C@H]3OC3O[C@@H](C)[C@H](O)[C@@H](O)[C@H]3O)C[C@]12C (stereo partly drawn) [R3, ginsenoside Rg6]
inhibition at 40000 µM (α-Glucosidase [1]): 27.4%

inhibition at 40000 µM (α-Glucosidase [2]): 20.2%
SMILES: CC1(C)CC[C@]2(C(=O)O[C@@H]3O[C@H](CO)[C@@H](O)[C@H](O)[C@H]3O)CC[C@]3(C)C(=CC[C@@H]4[C@@]5(C)CC[C@H](O[C@@H]6O[C@H](C(=O)O)[C@@H](O)[C@H](O)[C@H]6O[C@@H]6O[C@H](CO)[C@@H](O)[C@H](O)[C@H]6O)C(C)(C)[C@@H]5CC[C@]43C)[C@@H]2C1 [R8, ginsenoside Ro]

SMILES: CC(C)=CCC[C@](C)(OC1O[C@H](COC2O[C@@H](CO)[C@H](O)[C@H]2OC2OC[C@@H](O)[C@H](O)[C@H]2O)[C@@H](O)[C@H](O)[C@H]1O)C1CC[C@]2(C)C1[C@H](O)CC1[C@@]3(C)CC[C@H](OC4O[C@H](CO)[C@@H](O)[C@H](O)[C@H]4OC4O[C@H](CO)[C@@H](O)[C@H](O)[C@H]4O)C(C)(C)C3CC[C@]12C (stereo partly drawn) [R11, ginsenoside Ra2]
inhibition at 40000 µM (α-Glucosidase [3]): 29.5%
